Like-named read-outs stand apart in the source and are kept apart here.

For one assay, the target named is T1, CK2A2 (Homo sapiens, UniProt P19784).
T1 construct: purchased Eurofins
The assay is described as follows: Radiometric kinase assay (Eurofins), CK2A2. The assay is classed as biochemical. The note with it: read-out: CK2A2 RAD IC50. The text has this: (§1) • ^1Radiometric kinase assay from Eurofins. Performed in astrocytes with a Promega Lumit IL-6 kit.

The next assay deals with T2, CK2A1 (Homo sapiens, UniProt P68400).
T2 construct: purchased Eurofins
T2 sequence (P68400 whole entry): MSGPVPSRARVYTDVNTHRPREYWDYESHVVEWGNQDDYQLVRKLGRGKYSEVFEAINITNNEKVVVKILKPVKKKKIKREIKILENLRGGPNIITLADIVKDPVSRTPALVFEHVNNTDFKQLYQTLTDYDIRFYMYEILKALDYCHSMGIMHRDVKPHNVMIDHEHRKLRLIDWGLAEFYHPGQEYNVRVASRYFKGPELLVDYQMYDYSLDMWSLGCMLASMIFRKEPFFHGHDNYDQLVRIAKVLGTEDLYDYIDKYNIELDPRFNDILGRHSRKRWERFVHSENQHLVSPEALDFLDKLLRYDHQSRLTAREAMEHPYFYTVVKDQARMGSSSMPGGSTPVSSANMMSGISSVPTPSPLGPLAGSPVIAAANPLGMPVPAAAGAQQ
Nature of the assay: Radiometric kinase assay (Eurofins), CK2A1. The assay is classed as biochemical. The note with it: read-out: CK2A1 RAD IC50.
Source text: FIGS. 4A-4F characterize flavones for in vitro and in-cell CK2 inhibition. […] Representative of two independent experiments. […] Nonlinear fit was used to calculate IC50. […] Nonlinear fit was used to calculate IC50. […] Nonlinear fit was used to calculate IC50. […] Normalized to DMSO, data are representative of three independent experiments.
as §1

T1 sequence (P19784 whole entry): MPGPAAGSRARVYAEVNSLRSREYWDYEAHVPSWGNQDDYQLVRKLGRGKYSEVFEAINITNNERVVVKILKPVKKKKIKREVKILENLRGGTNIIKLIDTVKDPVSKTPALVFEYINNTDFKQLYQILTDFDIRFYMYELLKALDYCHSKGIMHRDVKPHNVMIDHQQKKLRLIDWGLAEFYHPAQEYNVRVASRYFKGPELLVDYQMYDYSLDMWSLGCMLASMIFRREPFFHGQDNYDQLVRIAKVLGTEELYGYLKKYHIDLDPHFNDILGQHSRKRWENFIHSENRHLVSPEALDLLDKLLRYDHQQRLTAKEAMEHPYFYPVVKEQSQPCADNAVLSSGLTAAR

One may read the IC50 as the point on the concentration scale where inhibition reaches its midpoint. For the compound `O=c1[nH]c(-c2ccc(O)c(Cl)n2)nc2c(Cl)cc(Cl)cc12` [Compound 963A], the IC50 at CK2A2 (Table 9) is 62 nM; on CK2A1 (Table 9) it was 176 nM.

Regarding `O=c1[nH]c(-c2ccc(O)c(Cl)n2)nc2c(Br)cccc12` [Compound 964A], the IC50 at CK2A2 (Table 9) was 137 nM; on CK2A1 (Table 9), 155 nM.

Regarding `O=c1cc(-c2ccc(O)c(O)c2)oc2c(Br)cc(Br)cc12` [Compound 1004A], the IC50 on CK2A2 (Table 5) was 803 nM; on CK2A1 (Table 5), 845 nM.

Regarding `O=c1[nH]c(-c2cc(Br)c(O)cn2)nc2c(Br)cc(Br)cc12` [Compound 1005A], the IC50 on CK2A2 (Table 9) is 53 nM; on CK2A1 (Table 9), 94 nM.

Regarding `O=c1[nH]c(-c2cc(Br)c(O)cn2)nc2c(Cl)cc(Cl)cc12` [Compound 1006A], the IC50 at CK2A2 (Table 9) stood at 85 nM; at CK2A1 (Table 9), 182 nM.

In the case of `O=c1[nH]c(-c2cc(Br)c(O)cn2)nc2c(Br)cccc12` [Compound 1007A], the half-maximal inhibitory concentration (IC50) on CK2A2 (Table 9) came to 327 nM; on CK2A1 (Table 9) it was 380 nM.

On to `COc1cc(-c2cc(=O)c3cc(Br)c(OC)c(Br)c3o2)ncc1O` [Compound 1040A], for which the IC50 at CK2A2 (Table 5) was 29 nM; on CK2A1 (Table 5) it was 52 nM.

Turning to `COc1nc(-c2cc(=O)c3cc(Br)c(OC)c(Br)c3o2)ccc1O` [Compound 1041A], the figures for the IC50 on CK2A2 (Table 5) and at CK2A1 (Table 5) were 1740 nM and 1890 nM, respectively.

As to `COc1cc2oc(-c3ccc(O)c(OC)n3)cc(=O)c2cc1Br` [Compound 1058A], the results for the IC50 at CK2A2 (Table 5) and at CK2A1 (Table 5) were 1180 nM and 2730 nM, respectively.

For `COc1ccc2c(=O)cc(-c3ccc(O)c(OC)n3)oc2c1Br` [Compound 1059A], the IC50 was 251 nM at CK2A2 (Table 5) and 185 nM at CK2A1 (Table 5).

As for `COc1cc(-c2cc(=O)c3cc(Br)c(OC)cc3o2)ncc1O` [Compound 1063B], the results for the IC50 at CK2A2 (Table 5) and at CK2A1 (Table 5) were 445 nM and 203 nM, respectively.

On to `COc1nc(-c2cc(=O)c3cc(Br)ccc3o2)ccc1O` [Compound 1064A], for which the IC50 amounted to 167 nM at CK2A2 (Table 5) and 124 nM at CK2A1 (Table 5).

As to `COc1cc(-c2cc(=O)c3cc(Br)ccc3o2)ncc1O` [Compound 1065A], the IC50 at CK2A2 (Table 5) amounted to 364 nM; on CK2A1 (Table 5), 401 nM.

For the compound `O=c1cc(-c2cc(Br)c(O)cn2)[nH]c2c(Br)cc(Br)cc12` [Compound 1066A], the IC50 on CK2A2 (Table 7) was 1290 nM; at CK2A1 (Table 7) it was 2700 nM.

Consider `COc1cc(-c2cc(=O)c3cc(Br)cc(Br)c3[nH]2)ncc1O` [Compound 1077A], for which the IC50 on CK2A2 (Table 7) and at CK2A1 (Table 7) was over 5000 nM in each case.

With `O=c1cc(-c2ccc(O)c(C(F)(F)F)c2)[nH]c2c(Br)cc(Br)cc12` [Compound 1095B], the 50% inhibitory concentration (IC50) on CK2A2 (Table 7) was 699 nM; on CK2A1 (Table 7) it was 488 nM.

Take `O=c1cc(-c2ccc(O)c(Cl)c2)[nH]c2c(Br)cc(Br)cc12` [Compound 1103A]: the IC50 was found to be 71 nM on CK2A2 (Table 7) and 141 nM at CK2A1 (Table 7).

As to `O=C1/C(=C/c2ccc(O)c(C3CC3)c2)Oc2c(Br)cc(Br)cc21` [Compound 1131A], the IC50 at CK2A2 (Table 12) and at CK2A1 (Table 12) was over 5000 nM each time.

For `O=c1cc(-c2ccc(O)c(C3CC3)c2)oc2c(Br)cc(Br)cc12` [Compound 1132A], the IC50 on CK2A2 (Table 5) and at CK2A1 (Table 5) was over 5000 nM throughout.

On to `COc1c(Br)cc2c(c1Br)O/C(=C\c1ccc(O)c(C3CC3)c1)C2=O` [Compound 1134A], for which the IC50 on CK2A2 (Table 12) and at CK2A1 (Table 12) was over 5000 nM each time.

For the compound `COc1ccc2c(c1Br)O/C(=C\c1ccc(O)c(C3CC3)c1)C2=O` [Compound 1135B], the IC50 on CK2A2 (Table 12) and at CK2A1 (Table 12) was over 5000 nM throughout.

Regarding `COc1c(Br)cc2c(=O)cc(-c3ccc(O)c(C4CC4)c3)oc2c1Br` [Compound 1140A], the IC50 on CK2A2 (Table 5) and at CK2A1 (Table 5) was over 5000 nM throughout.

As for `O=c1cc(-c2ccc(O)c(C3CC3)c2)oc2c(Br)cccc12` [Compound 1141A], the figures for the half-maximal inhibitory concentration (IC50) at CK2A2 (Table 5) and at CK2A1 (Table 5) were 4250 nM and over 5000 nM, respectively.

For the compound `COc1ccc2c(=O)cc(-c3ccc(O)c(C4CC4)c3)oc2c1Br` [Compound 1142A], the results for the IC50 at CK2A2 (Table 5) and at CK2A1 (Table 5) were 2230 nM and 2790 nM, respectively.

Regarding `O=C1/C(=C/c2ccc(O)cn2)Oc2c(Br)cc(Br)cc21` [Compound 1143A], the concentration for half-maximal inhibition (IC50) at CK2A2 (Table 12) and on CK2A1 (Table 12) was over 5000 nM in each case.

For the compound `COc1nc(/C=C2\Oc3c(Br)cc(Br)cc3C2=O)ccc1O` [Compound 1150A], the results for the IC50 at CK2A2 (Table 12) and at CK2A1 (Table 12) were 109 nM and 178 nM, respectively.

As for `COc1nc(/C=C2\Oc3c(cc(Br)c(OC)c3Br)C2=O)ccc1O` [Compound 1159A], the IC50 at CK2A2 (Table 12) came to 590 nM; on CK2A1 (Table 12), 1020 nM.

In the case of `COc1cc(/C=C2\Oc3c(Br)cc(Br)cc3C2=O)ncc1O` [Compound 1163A], the IC50 was found to be 403 nM at CK2A2 (Table 12) and 45 nM on CK2A1 (Table 12).

With `COc1cc(/C=C2\Oc3c(cc(Br)c(OC)c3Br)C2=O)ncc1O` [Compound 1164A], the IC50 on CK2A2 (Table 12) stood at 331 nM; at CK2A1 (Table 12), 120 nM.

Turning to `O=C1/C(=C/c2cc(Br)c(O)cn2)Oc2c(Br)cc(Br)cc21` [Compound 1173A], the IC50 turned out to be 30 nM on CK2A2 (Table 12) and 60 nM on CK2A1 (Table 12).

As to `COc1c(Br)cc2c(c1Br)O/C(=C\c1cc(Br)c(O)cn1)C2=O` [Compound 1174A], the values for the IC50 on CK2A2 (Table 12) and on CK2A1 (Table 12) were 27 nM and 86 nM, respectively.

In the case of `COc1ccc2c(c1Br)O/C(=C\c1ccc(O)c(OC)n1)C2=O` [Compound 1188A], the IC50 on CK2A2 (Table 12) was determined as 144 nM; on CK2A1 (Table 12), 465 nM.

Turning to `COc1cc(/C=C2\Oc3c(ccc(OC)c3Br)C2=O)ncc1O` [Compound 1189A], the IC50 on CK2A2 (Table 12) came to 149 nM; on CK2A1 (Table 12) it was 117 nM.

For the compound `COc1ccc2c(c1Br)O/C(=C\c1cc(Br)c(O)cn1)C2=O` [Compound 1190B], the IC50 was determined as 46 nM at CK2A2 (Table 12) and 184 nM on CK2A1 (Table 12).

Regarding `O=C(O)c1ccc(/C=C2\Oc3c(Br)cccc3C2=O)cc1` [Compound 1210A], the concentration for half-maximal inhibition (IC50) at CK2A2 (Table 12) came to 60 nM; on CK2A1 (Table 12) it was 703 nM.

Consider `C#Cc1cc(-c2cc(=O)c3cc(Br)c(OC)c(Br)c3o2)ccc1O` [Compound 1212A], for which the figures for the IC50 on CK2A2 (Table 12) and at CK2A1 (Table 12) were 1260 nM and over 5000 nM, respectively.

In the case of `O=C1/C(=C/c2ccc(O)c(C3CC3)c2)Oc2c(Br)cccc21` [Compound 1220A], the values for the IC50 on CK2A2 (Table 12) and on CK2A1 (Table 12) were over 5000 nM and 4450 nM, respectively.

Turning to `C#Cc1cc(/C=C2\Oc3c(Br)cc(Br)cc3C2=O)ccc1O` [Compound 1224A], the IC50 on CK2A2 (Table 12) was found to be 77 nM; on CK2A1 (Table 12), 177 nM.

As to `COc1nc(/C=C2\Oc3c(Br)cccc3C2=O)ccc1O` [Compound 1226A], the IC50 was 91 nM on CK2A2 (Table 12) and 131 nM at CK2A1 (Table 12).

For the compound `C#Cc1cc(/C=C2\Oc3c(cc(Br)c(OC)c3Br)C2=O)ccc1O` [Compound 1229A], the IC50 on CK2A2 (Table 12) is 49 nM; at CK2A1 (Table 12), 151 nM.

On to `C#Cc1cc(/C=C2\Oc3c(ccc(OC)c3Br)C2=O)ccc1O` [Compound 1231A], for which the IC50 on CK2A2 (Table 12) is 206 nM; on CK2A1 (Table 12), 180 nM.

In the case of `COc1cc(/C=C2\Oc3c(Br)cccc3C2=O)ncc1O` [Compound 1236B], the results for the IC50 on CK2A2 (Table 12) and at CK2A1 (Table 12) were 141 nM and 172 nM, respectively.

With `O=C1/C(=C/c2cc(Br)c(O)cn2)Oc2c(Br)cccc21` [Compound 1237A], the IC50 is 57 nM at CK2A2 (Table 12) and 67 nM on CK2A1 (Table 12).

Take `Cn1c(-c2ccc(O)c(Br)c2)nc2c(Br)cccc2c1=O` [JKT.866A]: the IC50 on CK2A2 (Table 8, quinazolinones) was over 5000 nM; at CK2A1 (Table 8, quinazolinones) it was 4590 nM.

With `Cn1c(-c2ccc(O)c(Cl)c2)nc2c(Br)cccc2c1=O` [JKT.870A], the IC50 was over 5000 nM at CK2A2 (Table 8, quinazolinones) and over 5000 nM on CK2A1 (Table 8, quinazolinones).
